pIC50: −log10 of the molar value. Read-outs that look alike come from different tables or passages of the source.

The subject of one data set is cortical neurones. Put plainly: Excitotoxicity: glutamate toxicity in cultured cortical neurones (MTT). Format: cell-based, rat. The conditions noted are these: for pIC50: Rattus norvegicus, Cortical neurone. An outline of the steps: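 Fetal Wistar rat cortical neurones (day 12-14 in culture, astrocyte-conditioned medium) exposed 20 h to 100 μM glutamate plus test drug in serum-free Neurobasal medium. Viability by MTT reduction read at 570 nm; IC50 by four-parameter logistic fit.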

Data set [1] in a line: Maximal electroshock (MES)-induced convulsions in mice. It is filed as in vivo. Conditions: for ED50: Mus musculus; for MES ED50: 30 min. Put shortly: (§1)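 Female NMR mice (18-28 g) received compounds in 0.9% saline, then traction reflex and rotarod (5 rpm, 1 min) tests preceded corneal MES (100 Hz, 0.5 s, 50 mA). Tonic hind-paw extension scored; ED50 values by Litchfield-Wilcoxon, therapeutic index = side-effect ED50 / anti-MES ED50.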
In general terms: In the maximal electroshock model the usual endpoint is tonic extension of the hind limbs.

Data set [2] is described as follows: Traction reflex test (myorelaxant action) in mice, therapeutic index versus MES. It is filed as in vivo. Conditions: ED50 for traction reflex impairment divided by ED50 for MES; for TI Tract: 30 min; for selectivity ratio at 0.5 h: mouse, in vivo, ip, read-out: TI Tract. An outline of the steps:
as §1

The procedure of data set [3]: All animals were kept with water and food ad libitum under a 12 hour light-dark cycle (light on at 6 a.m.) and at a controlled temperature (20±0.5° C.). All e experiments were performed between 10 a.m. and 5 p.m. Tested agents were injected 30 min. i.p. before the induction of convulsions if not stated otherwise (see below). All compounds were dissolved in 0.9% saline.

Another data set has as its system NMDA receptor. As to the kind of experiment: Patch clamp: NMDA-induced inward currents in cultured hippocampal neurones. It is filed as cell-based, rat. Put shortly: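 Whole-cell recordings at 20-22 °C from cultured E20–E21 rat hippocampal neurones, compounds applied by fast superfusion against NMDA-evoked currents, with 1 μM glycine in all solutions and TTX extracellular; CsCl-based pipette solution, pH 7.3. IC50 from four-parameter logistic fit; only cells recovering ≥75% after antagonist kept.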

Setting [4] is: Table 7, 100 μM glutamate, 20 h, read-out: Glut. Tox. IC50.
Setting [5] is: Table 9, 100 μM glutamate, read-out: Glut Tox IC50.
The mark [6] stands for this setting: ip, 0.5 h, Table 7, mice, i.p., 30 min before, read-out: MES ED50.
[7] abbreviates: ip, 0.5 h, Table 8, mice, i.p., 95% confidence limits in parentheses, read-out: MES ED50.
Setting [8] is: Table 7; NMDA 200 μM with glycine 1 μM at -70 mV; read-out: Patch Clamp IC50.
The mark [9] stands for this setting: Table 9; NMDA-induced currents; read-out: Patch Clamp IC50.
Where [10] appears, read: 20 h, read-out: Glut. Tox. IC50.
Setting [11] is: Table 8, mice, i.p., 95% confidence limits in parentheses.
The mark [12] stands for this setting: read-out: Patch Clamp IC50; Table 7; NMDA 200 μM with glycine 1 μM at -70 mV.
Where [13] appears, read: read-out: Patch Clamp IC50; Table 9; NMDA-induced currents.

Broadly, the pIC50 is the IC50 on a negative log10 scale, so that one unit is a factor of ten. Take `CC1(C)CC(N)CC(C)(C)C1` [Mrz 2/557]: the pIC50 is 5.17 in the data set with cortical neurones (setting [4]), 5.17 in the data set on cortical neurones (setting [5]), 4.73 with NMDA receptor (setting [8]) and 4.73 in the data set on NMDA receptor (setting [9]). Further, the ED50 in data set [1] (setting [6]) and in data set [1] (setting [7]) was 43.9 mg/kg in each case. In addition, the “TI Tract” value in data set [2] is on record as 1.0. For the same compound, the “Min Lethality” value in data set [3] (mouse, in vivo, ip) is listed as over 70 mg/kg.

Turning to `CC1(C)CC(C)(C)CC(C)(N)C1` [Mrz 2/579, 1-amino-1,3,3,5,5-pentamethylcyclohexane], the “neuroprotection in vitro (in words)” value with cortical neurones is reported as “most potent”. The pIC50 in the data set on cortical neurones (setting [4]) is 5.66; in the data set with cortical neurones (setting [5]), 5.67; with NMDA receptor (setting [8]) it was 5.89; with NMDA receptor (setting [9]), 5.89. Also, the ED50 in data set [1] (setting [6]) is 3.6 mg/kg; in data set [1] (setting [7]), 3.6 mg/kg; in data set [1] (iv, read-out: ED50 (anticonvulsive) following i.v. administration) it was 2.5 mg/kg; in data set [1] (po, read-out: ED50 (anticonvulsive) following p.o. administration), 13.7 mg/kg; in data set [1] (sc, read-out: ED50 (anticonvulsive) following s.c. administration), 4.6 mg/kg. Besides, the “TI Tract” value in data set [2] is 2.9. Further, the “Min Lethality” value in data set [3] (i.p., minimal lethal dose) is recorded as 108 mg/kg.

Consider `CC1(C)CC(CN)CC(C)(C)C1.Cl` [Mrz 2/580, 3,3,5,5-tetramethylcyclohexylmethylamine hydrochloride], for which the pIC50 is 5.25 in the data set with cortical neurones (setting [4]), 5.25 in the data set with cortical neurones (setting [5]), 4.89 with NMDA receptor (setting [8]) and 4.89 in the data set on NMDA receptor (setting [9]). Moreover, the ED50 in data set [1] (setting [6]) and in data set [1] (setting [7]) was 27.3 mg/kg in each case. The “TI Tract” value in data set [2] was 1.6. In data set [3] (i.p., minimal lethal dose), the “Min Lethality” value is recorded as 50 mg/kg.

With `CCC1(N)CC(C)(C)CC(C)(C)C1` [Mrz 2/600, 1-amino-1-ethyl-3,3,5,5-tetramethylcyclohexane], the pIC50 with cortical neurones (setting [4]) was 5.68; with cortical neurones (setting [5]) it was 5.68; in the data set with NMDA receptor (setting [8]) it was 5.43; in the data set with NMDA receptor (setting [9]) it was 5.46. Further, the ED50 in data set [1] (setting [6]) and in data set [1] (setting [7]) was 22.6 mg/kg in each case. The “TI Tract” value in data set [2] is on record as 0.6. The “Min Lethality” value in data set [3] (i.p., minimal lethal dose) is given as 50 mg/kg.

As for `CCCC1(N)CC(C)(C)CC(C)(C)C1` [Mrz 2/601, 1-amino-1-propyl-3,3,5,5-tetramethylcyclohexane], the pIC50 in the data set on cortical neurones (setting [10]) is 5.46; in the data set with cortical neurones (read-out: Glut Tox IC50) it was 5.46; in the data set with NMDA receptor (setting [12]), 4.98; in the data set on NMDA receptor (setting [13]), 5.00. In addition, the ED50 in data set [1] (ip, 0.5 h, read-out: MES ED50) turned out to be 15.6 mg/kg. Further, the “MES ED50” value in data set [1] (setting [11]) is recorded as 15.6 (10.4-23.4) mg/kg. Further, the “TI Tract” value in data set [2] came out at 1.5. In addition, the “Min Lethality” value in data set [3] (i.p., minimal lethal dose) is listed as 50 mg/kg.

As for `CCCC1(C)CC(C)(C)CC(C)(N)C1` (stereo not shown) [Mrz 2/614], the pIC50 with cortical neurones (setting [4]) is under 5.00; in the data set on cortical neurones (setting [5]) it was 5.90; in the data set on NMDA receptor (setting [8]), 4.86; with NMDA receptor (setting [9]), 4.86. Further, the ED50 in data set [1] (setting [6]) and in data set [1] (setting [7]) was 23.5 mg/kg in each case. For the same compound, in data set [2], the selectivity ratio at 0.5 h came out at 1.9. The “Min Lethality” value in data set [3] (mouse, in vivo, ip) is listed as over 50 mg/kg.

As for `CCC1(C)CC(C)(C)CC(C)(N)C1` (stereo not shown) [Mrz 2/615, 1-amino-1,3,5,5-tetramethyl-3-ethylcyclohexane], the pIC50 in the data set with cortical neurones (setting [4]) was 5.64; in the data set on cortical neurones (setting [5]), 5.64; in the data set on NMDA receptor (setting [8]) it was 5.54; in the data set on NMDA receptor (setting [9]), 5.54. The ED50 in data set [1] (setting [6]) and in data set [1] (setting [7]) was 6.1 mg/kg each time. Further, in data set [2], the “TI Tract” value is listed as 2.5. Besides, the “Min Lethality” value in data set [3] (i.p., minimal lethal dose) is listed as over 50 mg/kg.

Turning to `CC1CC(C)CC(C)(N)C1` (stereo not shown) [Mrz 2/616, 1-amino-1,3,5-trimethylcyclohexane], the pIC50 in the data set on cortical neurones (setting [4]) was 5.04; with cortical neurones (setting [5]) it was 5.04; in the data set with NMDA receptor (setting [8]), 4.47; with NMDA receptor (setting [9]), 4.48. Moreover, the ED50 in data set [1] (setting [6]) and in data set [1] (setting [7]) was 24 mg/kg each time. For the same compound, in data set [2], the “TI Tract” value is listed as 1.0. Further, the “Min Lethality” value in data set [3] (i.p., minimal lethal dose) was over 50 mg/kg.

Take `CCC1(C)CCCC(C)(N)C1` (stereo not shown) [Mrz 2/620]: the pIC50 is 4.42 in the data set with cortical neurones (setting [4]), 4.42 in the data set with cortical neurones (setting [5]), 4.00 in the data set with NMDA receptor (setting [8]) and 4.00 in the data set with NMDA receptor (setting [9]). For the same compound, the ED50 in data set [1] (setting [6]) and in data set [1] (setting [7]) was 41.3 mg/kg throughout. Moreover, in data set [2], the selectivity ratio at 0.5 h stood at 1.6. Further, the “Min Lethality” value in data set [3] (mouse, in vivo, ip) is given as over 50 mg/kg.

Consider `CC1(C)CCCC(C)(N)C1` (stereo not shown) [Mrz 2/621], for which the pIC50 was under 4.00 with cortical neurones (setting [10]), under 4.00 with cortical neurones (read-out: Glut Tox IC50), 4.03 with NMDA receptor (setting [12]) and 4.03 in the data set with NMDA receptor (setting [13]). Further, in data set [1] (ip, 0.5 h, read-out: MES ED50), the ED50 was determined as 36.9 mg/kg. The “MES ED50” value in data set [1] (setting [11]) is 36.9 (22.6-60.3) mg/kg. In addition, the selectivity ratio at 0.5 h in data set [2] was 1.8. In data set [3] (i.p., minimal lethal dose), the “Min Lethality” value is over 60 mg/kg.

For the compound `CCC1(CC)CC(C)(C)CC(C)(N)C1` (stereo not shown) [Mrz 2/623, 1-amino-1,5,5-trimethyl-3,3-diethylcyclohexane], the pIC50 is 5.35 in the data set on cortical neurones (setting [4]), 5.35 with cortical neurones (setting [5]), 5.43 in the data set on NMDA receptor (setting [8]) and 5.43 with NMDA receptor (setting [9]). Also, the ED50 in data set [1] (setting [6]) and in data set [1] (setting [7]) was 13.1 mg/kg throughout. In data set [2], the “TI Tract” value was 1.4. Further, the “Min Lethality” value in data set [3] (i.p., minimal lethal dose) is over 30 mg/kg.

`CCCC1(CCC)CC(C)(C)CC(C)(N)C1` (stereo not shown) [Mrz 2/626]: the pIC50 with cortical neurones (setting [4]) is 4.72; in the data set with cortical neurones (setting [5]), 4.72; in the data set on NMDA receptor (setting [8]), 5.02; with NMDA receptor (setting [9]), 5.02. Moreover, the ED50 in data set [1] (setting [6]) and in data set [1] (setting [7]) was 41.2 mg/kg in each case. In addition, in data set [2], the selectivity ratio at 0.5 h turned out to be 1.1. For the same compound, the “Min Lethality” value in data set [3] (mouse, in vivo, ip) is over 50 mg/kg.

With `CCNC1(C)CC(C)(C)CC(C)(C)C1` [Mrz 2/639, N-ethyl-1-amino-1,3,3,5,5-pentamethylcyclohexane], the pIC50 in the data set with cortical neurones (setting [4]) is 5.24; in the data set with cortical neurones (setting [5]), 5.20; in the data set on NMDA receptor (setting [8]), 5.13; in the data set with NMDA receptor (setting [9]), 5.13. For the same compound, the results for the ED50 in data set [1] (setting [6]) and in data set [1] (setting [7]) were 5.5 mg/kg and 5.87 mg/kg, respectively. The “TI Tract” value in data set [2] came out at 2.6. The “Min Lethality” value in data set [3] (i.p., minimal lethal dose) stood at 30 mg/kg.

For the compound `CNC1(C)CC(C)(C)CC(C)(C)C1.Cl` [Mrz 2/640, N,1,3,3,5,5-hexamethylcyclohexanamine hydrochloride], the pIC50 in the data set on cortical neurones (setting [4]) was 5.08; in the data set with cortical neurones (setting [5]), 5.08; in the data set with NMDA receptor (setting [8]), 4.84; with NMDA receptor (setting [9]) it was 4.84. In addition, the ED50 came out at 8.2 mg/kg in data set [1] (setting [6]) and 8.18 mg/kg in data set [1] (setting [7]). Further, the “TI Tract” value in data set [2] came to 2.3. Moreover, in data set [3] (i.p., minimal lethal dose), the “Min Lethality” value is given as 108 mg/kg.

As for `CC1(C)CC(CCN)CC(C)(C)C1` [Mrz 2/644], the pIC50 in the data set on cortical neurones (setting [4]) is 5.37; with cortical neurones (setting [5]), 5.37; in the data set on NMDA receptor (setting [8]), 5.39; with NMDA receptor (setting [9]), 5.39. For the same compound, the ED50 in data set [1] (setting [6]) and in data set [1] (setting [7]) was 53 mg/kg each time. Moreover, the “TI Tract” value in data set [2] turned out to be 0.5. Also, the “Min Lethality” value in data set [3] (mouse, in vivo, ip) was over 35 mg/kg.

The values above are taken from US6034134A, “1-Amino-alkylcyclohexane NMDA receptor antagonists” (Merz + Co. GmbH & Co., priority 1998, dated 2000).
